These results are taken from US11591331B2, “PARP1 inhibitors and uses thereof” (Xinthera, Inc., priority 2021, dated 2023).

The subject of one assay is DLD-1 BRCA2(−/−). Nature of the assay: Cell growth inhibition assay (CellTiter-Glo cell viability, 7 days). Type of assay: cell-based. The following applies: Homo sapiens, 168 h, DLD-1 BRCA2(-/-) cells. (ATP-based viability assays read luminescence as a measure of living cells.)
In assay [1] the test system is MDA-MB-436 (mutated BRCA1) cell lines. The description is as above. It counts as cell-based. The following applies: Homo sapiens, 168 h, MDA-MB-436 cells.

For orientation: EC50 means the concentration needed to bring the measured effect to its halfway point. On to `CNC(=O)c1ccc(C2=CCN(Cc3cnc4cc(Cl)c(=O)[nH]c4c3)CC2)cn1` [Example 160], for which the results for the EC50 (with DLD-1 BRCA2(−/−); in assay [1]) were 2.6 nM and 2.1 nM, respectively.

Take `CCc1cc2ncc(CN3CCN(c4ccc(C(=O)NC5CC5)nc4C#N)CC3)cc2[nH]c1=O` [Example 139]: the EC50 is 1.5 nM in the assay on DLD-1 BRCA2(−/−) and 0.77 nM in assay [1].

Take `CCc1cc2ncc(CN3CCN(c4ccc(C(=O)NC5CC5)c(F)c4)CC3)cc2[nH]c1=O` [Example 134]: the EC50 in the assay with DLD-1 BRCA2(−/−) is 2.4 nM; in assay [1], 1.4 nM.

With `[2H]C([2H])([2H])NC(=O)c1ccc(N2CCN(Cc3cnc4cc(C5CC5)c(=O)[nH]c4c3)[C@H]3C[C@H]32)cn1` (single isomer, unassigned) [Example 107], the EC50 in the assay on DLD-1 BRCA2(−/−) came to 9.1 nM; in assay [1] it was 2.5 nM.

For the molecule `CCc1cc2ncc(CN3CCN(c4ccnnc4C#N)CC3)cc2[nH]c1=O` [Example 120], the EC50 in the assay with DLD-1 BRCA2(−/−) worked out at 2.7 nM; in assay [1] it was 1.7 nM.

As to `CCc1cc2ncc(CN3CCC(c4cnc(C(=O)NC)c(F)c4)CC3)cc2[nH]c1=O` [Example 23, 5-{1-[(7-ethyl-6-oxo-5H-1,5-naphthyridin-3-yl)methyl]piperidin-4-yl}-3-fluoro-N-methylpyridine-2-carboxamide], the EC50 in the assay with DLD-1 BRCA2(−/−) was 6 nM; in assay [1] it was 2.2 nM.

For `CNC(=O)c1ccc(N2CCN(Cc3ccc4c5c(c(=O)[nH]c4c3)CCO5)CC2)cn1` [Example 18, N-methyl-5-[4-({4-oxo-2H,3H,5H-furo[3,2-c]quinolin-7-yl}methyl)piperazin-1-yl]pyridine-2-carboxamide], the EC50 in the assay on DLD-1 BRCA2(−/−) was 5.1 nM; in assay [1], 2.3 nM.

On to `CCc1cc2ncc(CN3CCN(c4ccc(C(=O)N[C@@H]5CCOC5)nc4)CC3)cc2[nH]c1=O` [Example 48], for which the results for the EC50 (with DLD-1 BRCA2(−/−); in assay [1]) were 2.7 nM and 1.7 nM, respectively.

With `CCc1cc2nc(C#N)c(CN3CCN(c4ccc(C(=O)NC)nc4)CC3)cc2[nH]c1=O` [Example 141], the EC50 in the assay on DLD-1 BRCA2(−/−) came to 6.4 nM; in assay [1] it was 4.1 nM.

In the case of `CNC(=O)c1ccc(N2CCN(Cc3cnc4c(C)c(Cl)c(=O)[nH]c4c3)CC2)c(F)n1` [Example 156], the EC50 is 0.68 nM in the assay with DLD-1 BRCA2(−/−) and 0.39 nM in assay [1].

`CNC(=O)c1ccc(N2CCN([C@H](C)c3cnc4cc(C)c(=O)[nH]c4c3)C[C@H]2C)cn1` (single isomer, unassigned) [Example 122]: the values for the EC50 (with DLD-1 BRCA2(−/−); in assay [1]) were 46 nM and 11 nM, respectively.

For `N#CC12CC(N3CCN(Cc4cnc5cc(Cl)c(=O)[nH]c5c4)CC3)(C1)C2` [Example 157], the results for the EC50 (in the assay with DLD-1 BRCA2(−/−); in assay [1]) were 61 nM and 41 nM, respectively.

For the molecule `Cc1cc2ncc(CN3CCN(c4cnc(C(=O)NC5CC5)c(F)c4)CC3)cc2[nH]c1=O` [Example 108], the results for the EC50 (with DLD-1 BRCA2(−/−); in assay [1]) were 31 nM and 14 nM, respectively.

As for `CCc1cc2ncc(CN3CCN(c4ccc(NC(=O)[C@H]5CCO5)nc4)CC3)cc2[nH]c1=O` (racemic) [Example 103], the figures for the EC50 (with DLD-1 BRCA2(−/−); in assay [1]) were 6.6 nM and 5.2 nM, respectively.

`CNC(=O)c1ccc(N2CCN(Cc3cnc4cc(C)c(=O)[nH]c4c3)[C@H]3C[C@H]32)cn1` (single isomer, unassigned) [Example 99]: the EC50 with DLD-1 BRCA2(−/−) worked out at 16 nM; in assay [1] it was 11 nM.

On to `CCc1cc2ncc(CN3CCN(c4ccc(C(=O)N[C@H]5CCC[C@@H]5O)nc4)CC3)cc2[nH]c1=O` [Example 49], for which the EC50 worked out at 5.5 nM in the assay on DLD-1 BRCA2(−/−) and 2.4 nM in assay [1].

For `CCc1cc2ncc(CN3CCN(c4ccc(NC(=O)C5CC5)nc4)CC3)cc2[nH]c1=O` [Example 75], the EC50 worked out at 2.6 nM in the assay with DLD-1 BRCA2(−/−) and 1.5 nM in assay [1].

Consider `CNC(=O)c1ccc(N2CCN(Cc3cnc4cc(C)c(=O)[nH]c4c3)C[C@H]2C)c(C#N)n1` [Example 66], for which the values for the EC50 (in the assay with DLD-1 BRCA2(−/−); in assay [1]) were 4.1 nM and 1.7 nM, respectively.

For the molecule `CCc1cc2ncc(CN3CCN(c4ccc(C(=O)NC5CC5)nc4)[C@@H]4C[C@@H]43)cc2[nH]c1=O` (single isomer, unassigned) [Example 111], the EC50 in the assay on DLD-1 BRCA2(−/−) turned out to be 4.6 nM; in assay [1], 1.8 nM.
